# Earlier results in US20140178367A1, “Methods of Treating Inflammatory Diseases by Targeting the Chemoattractant Cytokine Receptor 2 (CCR2) or Chemokine (C-C motif) Ligand 2 (CCL2)” (THE Brigham and Women's Hospital, Inc., priority 2011, published 2014).
# System: patients with ALS
smiles,measurement,value
Nc1nc2ccc(OC(F)(F)F)cc2s1 [riluzole],prolongs life,only a few months
